# Laboratory results as given in patent US7267994B2, “Element-coded affinity tags” (Regents of the University of California, priority 2003, dated 2007).
# Experiments:
# antibody 2D12.5 [1] = assay: relative binding curves of 2D12.5 for Y-DOTA isomers and side chain variants; set-up: species or system murine; conditions: for relative binding affinity for 2D12.5, isomers: coordinated metal Y^3+, FIG. 15; for relative binding affinity for 2D12.5, side chain location: Y-DOTA molecule with different side chain locations, FIG. 6
# Text: FIG. 6 is a graphical display showing the relative binding curves of an exemplary metal chelate, the Y-DOTA molecule, with different side chain locations. […] Evaluation of the crystal structure seems to indicate that shorter substitutions at this position may bind with higher affinity. Substitutions at other locations may yield reasonably high affinities as well. The (5-Amino-2-methoxy-phenyl)-carboxymethyl)-DOTA analyzed in this experiment was racemic, so it is not clear which isomer binds with higher affinity. The low pKa of the carboxymethyl proton makes it difficult to prepare a chirally pure molecule.
# FIG. 15 is a graphical display showing the relative binding curves of 2D12.5 for Y-DOTA isomers and Y-DTPA. 2D12.5 binds both the (R)- and (S)- isomers of 2-(4-nitrobenzyl)-DOTA when the coordinated metal is Y^3+ (the same behavior is expected for the other rare earths). The (S)-isomer confers Λ-helicity, while the (R)-isomer confers Δ-helicity to the acetate arms. […] Y-DOTA (no-sidearm) exists is solution as a racemic mixture of the coordination isomers.
# antibody 2D12.5 [2] = assay: competitive immunoassay (ELISA) of metal-DOTA complexes relative to Y-DOTA; format: binding, murine; conditions: metal complexes of [S]-2-(p-nitrobenzyl)-DOTA, 37° C.
# Text: FIG. 13 is graphical display showing the relative binding of metal-DOTA complexes to antibody 2D12.5. A representative set of competitive binding curves obtained from ELISA experiments described in Example 3 below. Error bars (representing the standard error of the mean) are shown, but are generally smaller than the data points.
# To determine the metal selectivity of the antibody 2D12.5, a competitive immunoassay was used to measure the binding constants of multiple metal-DOTA complexes relative to Y^3+-DOTA.
# We examined the monoclonal antibody 2D12.5, initially developed to bind specifically to Y-DOTA for targeted radiotherapy (see, e.g., Goodwin et al., Cancer Res. 54: 5937-5946 (1994)), in order to determine the scope of its activity. To assess the metal selectivity of antibody 2D12.5, a competitive immunoassay to measure the binding constants of various metal-DOTA complexes relative to the original Y^3+ complex was developed (FIG. 13). Briefly, 2D12.5 was incubated at 37° C. in the presence of immobilized Y-DOTA and a soluble metal-DOTA competitor. The metal-DOTA concentration was varied from μM to pM in order to determine the relative binding affinity of 2D12.5 for each metal chelate in comparison to Y-DOTA. Binding was measured by standard methods known to those of skill in the art. […]
# Target sequence in this assay (as listed by the source): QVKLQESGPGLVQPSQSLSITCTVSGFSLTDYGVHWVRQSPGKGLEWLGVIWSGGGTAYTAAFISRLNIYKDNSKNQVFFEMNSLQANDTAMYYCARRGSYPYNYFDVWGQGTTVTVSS
# Target sequence in this assay (as listed by the source): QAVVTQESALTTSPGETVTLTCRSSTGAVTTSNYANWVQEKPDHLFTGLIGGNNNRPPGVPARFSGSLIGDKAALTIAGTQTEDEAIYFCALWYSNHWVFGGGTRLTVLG
Compound,"relative binding affinity for 2D12.5, isomers (antibody 2D12.5 [1])","relative binding affinity for 2D12.5, side chain location (antibody 2D12.5 [1])",binding to 2D12.5 compared with the Y^3+ complex (antibody 2D12.5 [2]),binding to 2D12.5 compared with the Y^3+ complex (antibody 2D12.5 [2]; listed as Gd^3+)
"O=C(O)CN1CCN(CC(=O)O)CCN(CC(=O)O)C(Cc2ccc([N+](=O)[O-])cc2)CN(CC(=O)O)CC1 (single isomer, unassigned; isomer 2) [(R)-isomer, 2-(4-nitrobenzyl)-DOTA]",affinity decreases less than an order of magnitude,–,–,–
"O=C(O)CN1CCN(CC(=O)O)CCN(CC(=O)O)[C@@H](Cc2ccc([N+](=O)[O-])cc2)CN(CC(=O)O)CC1 [(S)-2-(4-nitrobenzyl)-DOTA, (S)-2-(4-nitro-benzyl)-1,4,7,10-tetraazacyclododecane-N,N′,N″,N′″-tetraacetic acid]",preferred isomer for binding,clearly stronger,–,–
(5-Amino-2-methoxy-phenyl)-carboxymethyl)-DOTA,–,still sufficiently strong,–,–
Gd-DOTA,–,–,bind more tightly than the original Y^3+ complex,strongest binders
